Source: US20110240014A1, “SUBSTRATES FOR DRUG DELIVERY DEVICE AND METHODS OF PREPARING AND USE” (ALEXZA PHARMACEUTICALS, INC., priority 2003, published 2011)
“Also recorded” adds a separate entry of the source.

Columns and labels:
[1] = Vaporization of flunisolide film from stainless steel foil substrates (304, T-430, zirconium oxide coated 304); aerosol purity, yield and recovery by HPLC; settings: for Purity of the drug aerosol particles: peak about 350° C.
[2] = Vaporization of budesonide film from clean and treated steel foils 304, T-430 and zirconium oxide coated 304; aerosol purity, yield and recovery by HPLC; type: physicochemical; settings: in all cases (all foils of Example 5)
Source text: Generation of budesonide aerosol from clean and treated steel foils 304 and T-430. […] All foils were dip-coated with a budesonide solution in dichloromethane.

[3] = Vaporization of eletriptan film from heat-treated and non-treated 304 stainless steel foil; aerosol purity, yield and recovery by HPLC; type: physicochemical; settings: for mass recovered from the filter / percent yield (recovered from the filter) / total mass recovered from the filter, test apparatus and substrate / Purity of the drug aerosol particles: film thickness 4.2 μm, 2.26 mg applied; for Purity of the drug aerosol particles: peak about 450° C.
Source text: All foils were dip-coated with an eletriptan solution in acetone.

[4] = Vaporization of bumetanide film from heat-treated, nitric acid-treated and non-treated 304 stainless steel foil; aerosol purity, yield and recovery by HPLC; settings: for mass recovered from the filter / percent yield (recovered from the filter) / total mass recovered from the filter, test apparatus and substrate / Purity of the drug aerosol particles: coating 1.4 μm, 0.77 mg applied; for Purity of the drug aerosol particles: peak about 320° C.
[5] = 0.5 μm coating on the heat-treated substrate
[6] = 1.5 μm coating on the non-treated substrate
[7] = heat-treated substrate 304, film thickness 0.5 μm, 0.253 mg applied
[8] = heat-treated substrate 304, film thickness 1.5 μm, 0.443 mg applied
[9] = non-treated substrate 304, film thickness 0.9 μm, 0.485 mg applied
[10] = non-treated substrate T-430, film thickness 1.3 μm, 0.68 mg applied
[11] = substrate 304 (treatment not stated), film thickness 1.2 μm, 0.65 mg applied
[12] = zirconium oxide coated substrate 304, film thickness 0.8 μm, 0.44 mg applied
[13] = acid-treated (nitric acid) substrate

## CC1(C)O[C@@H]2C[C@H]3[C@@H]4C[C@H](F)C5=CC(=O)C=C[C@]5(C)[C@H]4[C@@H](O)C[C@]3(C)[C@]2(C(=O)CO)O1 [flunisolide]
[1]; [5]
  aerosol particles yielded: about 0.3 mg
  coated dose emitted from the test apparatus: 97%-100
[1]; [6]
  aerosol particles yielded: 0.2 mg
  coated dose emitted from the test apparatus: about 25%
[1]; clean, non-treated T-430 steel foil, compared with non-treated 304 (FIG. 7)
  vapor purity (in words): good vapor purities; also recorded: improved purities; also recorded: very good purities
[1]; heat-treated 304 substrate, film thickness about 0.2 μm (FIG. 6)
  purity of thermal vapor: about 93%
[1]; heat-treated T-430 foils versus non-treated T-430
  change of aerosol purity (in words): no marked improvement
[1]; [7]
  mass recovered from the filter: 0.253 mg
  percent yield (recovered from the filter): 100%
  total mass recovered from the test apparatus and substrate: 0.253 mg
  Purity of the drug aerosol particles: 94.4%
[1]; [8]
  mass recovered from the filter: 0.255 mg
  percent yield (recovered from the filter): 57.5%
  total mass recovered from the test apparatus and substrate: 0.265 mg
  Purity of the drug aerosol particles: 76.5%
[1]; heat-treated substrate, film thickness about 0.2 or 0.5 μm
  purity of thermal vapor: about 93%
[1]; heat-treated substrate, film thickness about 2.6 μm
  purity of thermal vapor: 83%
[1]; heat-treated versus non-treated 304 substrates, films 0.2 μm to 2.6 μm (FIG. 6)
  change of aerosol purity (in words): marked improvement; also recorded: marked increase
[1]; in all cases (all foils of Example 1)
  quantity of drug remaining on the foil after vaporization: less than 15 % of the loaded dose
[1]; non-treated 304 substrate, film thickness about 0.2 μm (FIG. 6)
  purity of thermal vapor: about 50%
[1]; [9]
  mass recovered from the filter: 0.206 mg
  percent yield (recovered from the filter): 42.4%
  total mass recovered from the test apparatus and substrate: 0.210 mg
  Purity of the drug aerosol particles: 36.3%
[1]; [10]
  mass recovered from the filter: 0.47 mg
  percent yield (recovered from the filter): 69.1%
  total mass recovered from the test apparatus and substrate: 0.51 mg
  Purity of the drug aerosol particles: 82.8%
[1]; non-treated substrate, film thickness about 1.5 μm
  purity of thermal vapor: 38%
[1]; [11]
  mass recovered from the filter: 0.161 mg
  percent yield (recovered from the filter): 24.7%
  total mass recovered from the test apparatus and substrate: 0.172 mg
  Purity of the drug aerosol particles: 30.2%
[1]; zirconium oxide coated 304 steel foil, without heat treatment (FIG. 7)
  vapor purity (in words): good aerosol purities; also recorded: improved purities; also recorded: very good vapor purities
[1]; [12]
  mass recovered from the filter: 0.246 mg
  percent yield (recovered from the filter): 55.9%
  total mass recovered from the test apparatus and substrate: 0.31 mg
  Purity of the drug aerosol particles: 90.0%

## CCCC1O[C@@H]2C[C@H]3[C@@H]4CCC5=CC(=O)C=C[C@]5(C)[C@H]4[C@@H](O)C[C@]3(C)[C@]2(C(=O)CO)O1 (some centres unmarked) [budesonide]
[2]
  quantity of drug remaining on the foil after vaporization: less than 5 % of the loaded dose

## CN1CCC[C@@H]1Cc1c[nH]c2ccc(CCS(=O)(=O)c3ccccc3)cc12 [eletriptan]
[3]; heat-treated 304 substrate
  mass recovered from the filter: 1.78 mg
  percent yield (recovered from the filter): 78.9%
  total mass recovered from the filter, test apparatus and substrate: 1.79 mg
  Purity of the drug aerosol particles: 95.6%
[3]; heat-treated versus non-treated foils, films between 4.0 and 9.5 μm (FIG. 8)
  change of aerosol purity (in words): increase
[3]; in all cases (all foils of Example 2)
  quantity of drug remaining on the foil after vaporization: less than 15 % of the loaded dose
[3]; non-treated 304 substrate
  mass recovered from the filter: 1.647 mg
  percent yield (recovered from the filter): 72.9%
  total mass recovered from the filter, test apparatus and substrate: 1.65 mg
  Purity of the drug aerosol particles: 92.8%

## CCCCNc1cc(C(=O)O)cc(S(N)(=O)=O)c1Oc1ccccc1 [bumetanide]
[4]; [13]
  mass recovered from the filter: 0.41 mg
  percent yield (recovered from the filter): 53%
  total mass recovered from the filter, test apparatus and substrate: 0.42 mg
  Purity of the drug aerosol particles: 98.3%
[4]; heat-treated substrate (350° C., 6 hours)
  Purity of the drug aerosol particles: 99.3%
[4]; heat-treated substrate
  mass recovered from the filter: 0.40 mg
  percent yield (recovered from the filter): 52%
  total mass recovered from the filter, test apparatus and substrate: 0.41 mg
[4]; in all cases (all foils of Example 4)
  quantity of drug remaining on the foil after vaporization: less than 5 % of the loaded dose
[4]; non-treated substrate
  mass recovered from the filter: 0.37 mg
  percent yield (recovered from the filter): 48%
  total mass recovered from the filter, test apparatus and substrate: 0.37 mg
  Purity of the drug aerosol particles: 97.9%
